Test system: 422866-222-R5-J1-PDC complex spheroid viability
Experiment: Anticancer human tumor 422866-222-R5-J1-PDC patient-derived pancreatic adenocarcinoma cell line growth inhibition [POLQ]
Conditions: for IC50: curve of first compound; for viability, T/C: stronger effect = lower value
In short: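 Complex spheroid viability model combining PDC tumour cells with endothelial (HUVEC) and MSC stromal cells. Novobiocin, ART-558 or RP6685 were tested singly and in combination with standard and investigational anticancer drugs. Each was titrated in half-log steps from near clinical Cmax, or from 10 microM where Cmax was unknown.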

[1] = second compound 0.0316 µM, first compound 0.0316 µM
[2] = second compound 0.0316 µM, first compound 0.1 µM
[3] = second compound 0.0316 µM, first compound 0.316 µM
[4] = second compound 0.0316 µM, first compound 1 µM
[5] = second compound 0.0316 µM, first compound 3.16 µM
[6] = second compound 0.0316 µM, first compound 10 µM
[7] = second compound 0.1 µM, first compound 0.0316 µM
[8] = second compound 0.1 µM, first compound 0.1 µM
[9] = second compound 0.1 µM, first compound 0.316 µM
[10] = second compound 0.1 µM, first compound 1 µM
[11] = second compound 0.1 µM, first compound 3.16 µM
[12] = second compound 0.1 µM, first compound 10 µM
[13] = second compound 0.316 µM, first compound 0.0316 µM
[14] = second compound 0.316 µM, first compound 0.1 µM
[15] = second compound 0.316 µM, first compound 0.316 µM
[16] = second compound 0.316 µM, first compound 1 µM
[17] = second compound 0.316 µM, first compound 3.16 µM
[18] = second compound 0.316 µM, first compound 10 µM
[19] = second compound 1 µM, first compound 0.0316 µM
[20] = second compound 1 µM, first compound 0.1 µM
[21] = second compound 1 µM, first compound 0.316 µM
[22] = second compound 1 µM, first compound 1 µM
[23] = second compound 1 µM, first compound 3.16 µM
[24] = second compound 1 µM, first compound 10 µM
[25] = second compound 3.16 µM, first compound 0.0316 µM
[26] = second compound 3.16 µM, first compound 0.1 µM
[27] = second compound 3.16 µM, first compound 0.316 µM
[28] = second compound 3.16 µM, first compound 1 µM
[29] = second compound 3.16 µM, first compound 3.16 µM
[30] = second compound 3.16 µM, first compound 10 µM
[31] = second compound 10 µM, first compound 0.0316 µM
[32] = second compound 10 µM, first compound 0.1 µM
[33] = second compound 10 µM, first compound 0.316 µM
[34] = second compound 10 µM, first compound 1 µM
[35] = second compound 10 µM, first compound 3.16 µM
[36] = second compound 10 µM, first compound 10 µM
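Note: spheroids exposed to compounds for one week before readout.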
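Throughout, for viability, T/C: percent of DMSO vehicle wells luminescence so 100% = untreated viability.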

COc1cc2cc(C(=O)CCC(=O)O)sc2cc1OC + Nc1ccc(C#CCN(C(=O)Cc2ncc(C(F)(F)F)cc2C(F)(F)F)c2ccc(F)cc2)nn1
IC50 (second compound 0.0316 µM): > 10 µM | IC50 (second compound 0.1 µM): > 10 µM | IC50 (second compound 0.316 µM): > 10 µM | IC50 (second compound 1 µM): > 10 µM | IC50 (second compound 3.16 µM): > 10 µM | IC50 (second compound 10 µM): > 10 µM | viability, T/C [1]: 84% | viability, T/C [2]: 97.2% | viability, T/C [3]: 94.5% | viability, T/C [4]: 115% | viability, T/C [5]: 81.2% | viability, T/C [6]: 89.1% | viability, T/C [7]: 87.3% | viability, T/C [8]: 89.9% | viability, T/C [9]: 87.5% | viability, T/C [10]: 95.3% | viability, T/C [11]: 84% | viability, T/C [12]: 103% | viability, T/C [13]: 112% | viability, T/C [14]: 104% | viability, T/C [15]: 86.4% | viability, T/C [16]: 90.8% | viability, T/C [17]: 86.2% | viability, T/C [18]: 109% | viability, T/C [19]: 99.6% | viability, T/C [20]: 87.1% | viability, T/C [21]: 86.9% | viability, T/C [22]: 84.5% | viability, T/C [23]: 94.2% | viability, T/C [24]: 136% | viability, T/C [25]: 108% | viability, T/C [26]: 98.6% | viability, T/C [27]: 95% | viability, T/C [28]: 94.9% | viability, T/C [29]: 92.2% | viability, T/C [30]: 111% | viability, T/C [31]: 98% | viability, T/C [32]: 91.4% | viability, T/C [33]: 93.5% | viability, T/C [34]: 89.9% | viability, T/C [35]: 100% | viability, T/C [36]: 104%

CC1COCCN1c1cc(C2(O)CC3CCC(C2)O3)c2cnn(-c3ccn[nH]3)c2n1 (stereo not drawn) + Cc1cccc(N(C)C(=O)C2C(O)CCN2c2nc(C)cc(C(F)(F)F)c2C#N)c1
IC50 (second compound 0.0316 µM): > 10 µM | IC50 (second compound 0.1 µM): > 10 µM | IC50 (second compound 0.316 µM): > 10 µM | IC50 (second compound 1 µM): > 10 µM | IC50 (second compound 3.16 µM): 0.0316 µM | IC50 (second compound 10 µM): > 10 µM | viability, T/C [1]: 87.5% | viability, T/C [2]: 42.3% | viability, T/C [3]: 44.2% | viability, T/C [4]: 85.3% | viability, T/C [5]: 70.9% | viability, T/C [6]: 73.2% | viability, T/C [7]: 75.1% | viability, T/C [8]: 55.5% | viability, T/C [9]: 52.2% | viability, T/C [10]: 79.2% | viability, T/C [11]: 68.8% | viability, T/C [12]: 72.2% | viability, T/C [13]: 72.5% | viability, T/C [14]: 40.9% | viability, T/C [15]: 52.5% | viability, T/C [16]: 70.3% | viability, T/C [17]: 80.7% | viability, T/C [18]: 74.7% | viability, T/C [19]: 77.8% | viability, T/C [20]: 44.7% | viability, T/C [21]: 51.3% | viability, T/C [22]: 70.6% | viability, T/C [23]: 71.3% | viability, T/C [24]: 92.5% | viability, T/C [25]: 74.8% | viability, T/C [26]: 48.1% | viability, T/C [27]: 41.1% | viability, T/C [28]: 95.4% | viability, T/C [29]: 78.2% | viability, T/C [30]: 79% | viability, T/C [31]: 76.2% | viability, T/C [32]: 45.2% | viability, T/C [33]: 54.3% | viability, T/C [34]: 85.3% | viability, T/C [35]: 82.4% | viability, T/C [36]: 82.6%

CCc1c2c(nc3ccc(O)cc13)-c1cc3c(c(=O)n1C2)COC(=O)[C@]3(O)CC + Nc1ccc(C#CCN(C(=O)Cc2ncc(C(F)(F)F)cc2C(F)(F)F)c2ccc(F)cc2)nn1
IC50 (second compound 0.0316 µM): < 0.00316 µM | IC50 (second compound 0.1 µM): < 0.00316 µM | IC50 (second compound 0.316 µM): < 0.00316 µM | IC50 (second compound 1 µM): < 0.00316 µM | IC50 (second compound 3.16 µM): < 0.00316 µM | IC50 (second compound 10 µM): < 0.00316 µM | viability, T/C (second compound 0.0316 µM, first compound 0.00316 µM): 40% | viability, T/C (second compound 0.0316 µM, first compound 0.01 µM): 32.4% | viability, T/C [1]: 33.4% | viability, T/C [2]: 33% | viability, T/C [3]: 35% | viability, T/C [4]: 16.2% | viability, T/C (second compound 0.1 µM, first compound 0.00316 µM): 39.4% | viability, T/C (second compound 0.1 µM, first compound 0.01 µM): 37.8% | viability, T/C [7]: 35% | viability, T/C [8]: 32.4% | viability, T/C [9]: 32.8% | viability, T/C [10]: 20.6% | viability, T/C (second compound 0.316 µM, first compound 0.00316 µM): 35.8% | viability, T/C (second compound 0.316 µM, first compound 0.01 µM): 38% | viability, T/C [13]: 34.8% | viability, T/C [14]: 33.3% | viability, T/C [15]: 33% | viability, T/C [16]: 16.9% | viability, T/C (second compound 1 µM, first compound 0.00316 µM): 38.4% | viability, T/C (second compound 1 µM, first compound 0.01 µM): 32.3% | viability, T/C [19]: 32.7% | viability, T/C [20]: 31% | viability, T/C [21]: 30.5% | viability, T/C [22]: 21.7% | viability, T/C (second compound 3.16 µM, first compound 0.00316 µM): 36.2% | viability, T/C (second compound 3.16 µM, first compound 0.01 µM): 31.6% | viability, T/C [25]: 29.4% | viability, T/C [26]: 32.7% | viability, T/C [27]: 39.1% | viability, T/C [28]: 23.1% | viability, T/C (second compound 10 µM, first compound 0.00316 µM): 38.6% | viability, T/C (second compound 10 µM, first compound 0.01 µM): 35% | viability, T/C [31]: 36.9% | viability, T/C [32]: 28.7% | viability, T/C [33]: 31.2% | viability, T/C [34]: 18.6%

CC1COCCN1c1cc(-c2ccnn2C)c2ccnc(-c3ccn[nH]3)c2n1 (stereo not drawn) + Cc1cccc(N(C)C(=O)C2C(O)CCN2c2nc(C)cc(C(F)(F)F)c2C#N)c1
IC50 (second compound 0.0316 µM): 0.0316 µM | IC50 (second compound 0.1 µM): > 10 µM | IC50 (second compound 0.316 µM): > 10 µM | IC50 (second compound 1 µM): > 10 µM | IC50 (second compound 3.16 µM): 0.0316 µM | IC50 (second compound 10 µM): 0.0316 µM | viability, T/C [1]: 82.3% | viability, T/C [2]: 55.7% | viability, T/C [3]: 49.3% | viability, T/C [4]: 37.8% | viability, T/C [5]: 72.3% | viability, T/C [6]: 83.1% | viability, T/C [7]: 87% | viability, T/C [8]: 55.3% | viability, T/C [9]: 49.1% | viability, T/C [10]: 44.5% | viability, T/C [11]: 65.4% | viability, T/C [12]: 73% | viability, T/C [13]: 91.8% | viability, T/C [14]: 59.6% | viability, T/C [15]: 43.9% | viability, T/C [16]: 38.6% | viability, T/C [17]: 62.4% | viability, T/C [18]: 79.8% | viability, T/C [19]: 77.5% | viability, T/C [20]: 73.6% | viability, T/C [21]: 34% | viability, T/C [22]: 42.5% | viability, T/C [23]: 73.7% | viability, T/C [24]: 73.7% | viability, T/C [25]: 75.7% | viability, T/C [26]: 55.8% | viability, T/C [27]: 49.5% | viability, T/C [28]: 43.7% | viability, T/C [29]: 74.3% | viability, T/C [30]: 85% | viability, T/C [31]: 74.3% | viability, T/C [32]: 58.2% | viability, T/C [33]: 46.7% | viability, T/C [34]: 36.5% | viability, T/C [35]: 70.3% | viability, T/C [36]: 94.8%
